Among the test systems are SNB-19; NCI-H226; TK-10; OVCAR-8; HL-60; CAKI-1; MCF7; SW-620; T47D; BT-549; EKVX; SN12C; A549; MDA-MB-231; SK-MEL-5; UO-31; KM12; IGROV-1; SR.
Holding throughout (assay): NCI anticancer screen, dose series, 48 h

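A five-concentration, 48-hour dose response in 96-well plates underlies each endpoint, interpolated linearly between surrounding concentrations. GI50 = concentration required for 50% inhibition of growth.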 Activity calls are given as the source filed them. Cut-off read from the data, not from the text of the source: active = GI50 up to about 1.1 µM and inactive = higher.

`O=c1[nH]c(=O)c2ncn(-c3ccc([N+](=O)[O-])cn3)c2[nH]1`: the GI50 in the assay with SNB-19, in the assay with NCI-H226, in the assay with TK-10, in the assay with OVCAR-8, with HL-60 and in the assay on CAKI-1 was > 100 µM (inactive) in each case. Besides, the GI50 with MCF7, with SW-620, in the assay on T47D, in the assay on BT-549, in the assay on EKVX and in the assay with SN12C was > 100 µM (inactive) in each case. For the same compound, the GI50 in the assay with A549, in the assay on MDA-MB-231, in the assay with SK-MEL-5, in the assay on UO-31 and with KM12 was > 100 µM (inactive) each time.
Take `COc1cc(Nc2nnc3n2S(=O)(=O)c2cc(C)c(Cl)cc2S3)cc(OC)c1`: the GI50 in the assay on SNB-19 is 13.3 µM (inactive); in the assay with NCI-H226 it was 16.4 µM (inactive); in the assay on TK-10, 31.4 µM (inactive); in the assay with OVCAR-8 it was 17.5 µM (inactive); in the assay with HL-60, 8.69 µM (inactive); in the assay on IGROV-1, 1.87 µM (inactive). Moreover, the GI50 with CAKI-1 is 8.55 µM (inactive); with MCF7, 13.6 µM (inactive); in the assay on T47D it was 8.22 µM (inactive); in the assay on BT-549 it was 5.77 µM (inactive); in the assay with EKVX, 15.4 µM (inactive); in the assay with SN12C, 24.8 µM (inactive). Further, the GI50 in the assay with A549 was 6.62 µM (inactive); in the assay on MDA-MB-231, 19.9 µM (inactive); in the assay with SK-MEL-5, 9.29 µM (inactive); with UO-31, 11.6 µM (inactive); in the assay on KM12, 23.4 µM (inactive).
Take `C=CCN1C(=O)/C(=C\c2cc(C(C)(C)C)c(O)c(C(C)(C)C)c2)NC1=S`: the GI50 in the assay with SNB-19 was 41.9 µM (inactive); in the assay on NCI-H226, 29.3 µM (inactive); in the assay on TK-10, 25 µM (inactive); in the assay with OVCAR-8, 33.9 µM (inactive); with HL-60, 0.239 µM (active); in the assay with IGROV-1 it was 36.6 µM (inactive). Moreover, the GI50 was 21.1 µM (inactive) in the assay on SR; 22.3 µM (inactive) in the assay with CAKI-1; 20.7 µM (inactive) in the assay with MCF7; 20.6 µM (inactive) in the assay on SW-620; 33.9 µM (inactive) in the assay on BT-549; 19.9 µM (inactive) in the assay on EKVX. Further, the GI50 was 23.1 µM (inactive) in the assay on SN12C; 24.3 µM (inactive) in the assay on A549; 15.9 µM (inactive) in the assay with MDA-MB-231; 15.9 µM (inactive) with SK-MEL-5; 28.8 µM (inactive) with UO-31; 19.4 µM (inactive) in the assay with KM12.
As to `CC1N(C)C(=O)OC12CCN(CCCC(=O)c1ccc(F)cc1)CC2` (stereo not drawn), the GI50 in the assay on SNB-19, with NCI-H226, in the assay with TK-10, in the assay with OVCAR-8, with HL-60 and with IGROV-1 was > 100 µM (inactive) each time. Further, the GI50 in the assay on CAKI-1, in the assay on MCF7, in the assay with SW-620, with T47D, in the assay with BT-549 and with SN12C was > 100 µM (inactive) in each case. The GI50 in the assay with A549, in the assay with MDA-MB-231, in the assay on SK-MEL-5, in the assay with UO-31 and with KM12 was > 100 µM (inactive) each time.
In the case of `O=C(Cn1c2ccc(Br)cc2c2nc3ccccc3nc21)NNC(=S)NC1CCCCC1`, the GI50 in the assay with SNB-19 was 13.3 µM (inactive); in the assay with NCI-H226, 15.4 µM (inactive); in the assay with TK-10 it was 15.4 µM (inactive); with OVCAR-8, 14.7 µM (inactive); in the assay with IGROV-1, 10.7 µM (inactive); with CAKI-1, 18 µM (inactive). In addition, the GI50 with SW-620 is 15.8 µM (inactive); in the assay with T47D, 17.3 µM (inactive); with BT-549, 19.9 µM (inactive); with EKVX, 18.6 µM (inactive); in the assay with SN12C, 21.3 µM (inactive); in the assay on A549, 10.6 µM (inactive). In addition, the GI50 in the assay on MDA-MB-231 was 15.8 µM (inactive); in the assay on SK-MEL-5, 14.2 µM (inactive); in the assay with UO-31 it was 10.5 µM (inactive); with KM12, 18.7 µM (inactive).
Turning to `N#Cc1c(-c2ccc(Cl)cc2)c2c(n(C3OC(CO)C(O)C(O)C3O)c1=S)CCCC2` (stereo not drawn), the GI50 in the assay with SNB-19 was 39.1 µM (inactive); with NCI-H226 it was > 100 µM (inactive); in the assay on TK-10, 72.4 µM (inactive); with OVCAR-8 it was 80.4 µM (inactive); in the assay on HL-60, 24.7 µM (inactive); in the assay on IGROV-1, 59.2 µM (inactive). In addition, the GI50 in the assay with SR was 39.2 µM (inactive); in the assay on CAKI-1, > 100 µM (inactive); in the assay on MCF7 it was 55.2 µM (inactive); with SW-620, 74 µM (inactive); in the assay on BT-549, 25.5 µM (inactive); in the assay on EKVX, 56.1 µM (inactive). The GI50 with SN12C is 68.5 µM (inactive); in the assay with A549, > 100 µM (inactive); in the assay with MDA-MB-231, 53.6 µM (inactive); with SK-MEL-5 it was 18.4 µM (inactive); in the assay with UO-31, 74.5 µM (inactive); in the assay on KM12, 50 µM (inactive).
With `COc1cc(O)c2c(c1)C(=O)c1cc3c(c(O)c1C2=O)C(OC1OC(C)C(OC)C(O)C1OC)C(OC)C(C)(O)C3=O` (stereo not drawn), the GI50 is 6.53 µM (inactive) in the assay on SNB-19; 2.59 µM (inactive) in the assay on NCI-H226; 3.67 µM (inactive) in the assay on TK-10; 2.36 µM (inactive) in the assay with OVCAR-8; 2.79 µM (inactive) in the assay with HL-60; 2.12 µM (inactive) in the assay with IGROV-1. For the same compound, the GI50 with SR was 1.64 µM (inactive); in the assay with CAKI-1 it was 3.04 µM (inactive); with MCF7 it was 5.58 µM (inactive); in the assay with SW-620, 3.6 µM (inactive); in the assay with BT-549 it was 14.5 µM (inactive); with EKVX, 3.37 µM (inactive). Moreover, the GI50 in the assay with A549 was 3.55 µM (inactive); in the assay with MDA-MB-231, 4.44 µM (inactive); in the assay with SK-MEL-5, 1.68 µM (inactive); in the assay on KM12, 3.7 µM (inactive).
As for `Cc1ccc(-n2c(Cn3nnc(-c4cccnc4)n3)nn(C3OC(COC(=O)c4ccccc4)C(OC(=O)c4ccccc4)C3OC(=O)c3ccccc3)c2=S)cc1` (stereo not drawn), the GI50 in the assay with SNB-19 is 32.3 µM (inactive); with NCI-H226, > 100 µM (inactive); in the assay on TK-10, > 100 µM (inactive); with OVCAR-8, > 100 µM (inactive); in the assay on IGROV-1 it was > 100 µM (inactive); with CAKI-1, > 100 µM (inactive). Also, the GI50 in the assay on MCF7, with SW-620, in the assay with T47D, with BT-549, with EKVX and with SN12C was > 100 µM (inactive) throughout. The GI50 in the assay on A549, in the assay with MDA-MB-231, with SK-MEL-5, in the assay with UO-31 and with KM12 was > 100 µM (inactive) each time.
With `O=C1CSC(c2c[nH]c3ccccc23)N1c1cccc(Cl)c1` (stereo not drawn), the GI50 in the assay with SNB-19 was 68.2 µM (inactive); in the assay with NCI-H226, 66.5 µM (inactive); with TK-10 it was 89.3 µM (inactive); with OVCAR-8, > 100 µM (inactive); with HL-60 it was 36.6 µM (inactive); with IGROV-1, 27.9 µM (inactive). Also, the GI50 with MCF7 was 39.6 µM (inactive); in the assay with SW-620 it was 50.7 µM (inactive); in the assay on T47D, > 100 µM (inactive); in the assay on BT-549 it was 43.9 µM (inactive); in the assay with EKVX, > 100 µM (inactive); in the assay on SN12C, 52.2 µM (inactive). Further, the GI50 was 56.1 µM (inactive) with A549; 24 µM (inactive) in the assay with MDA-MB-231; 40 µM (inactive) in the assay with SK-MEL-5; 84.5 µM (inactive) in the assay with UO-31; 50.1 µM (inactive) in the assay on KM12.
In the case of `O=C(O)c1ccccc1/C=C1/Cc2ccc3c(c2C1=O)CCC3`, the GI50 is 54.7 µM (inactive) in the assay on SNB-19; 36.2 µM (inactive) with NCI-H226; 90.8 µM (inactive) with TK-10; 48.1 µM (inactive) in the assay with OVCAR-8; 20.1 µM (inactive) with HL-60; 43.6 µM (inactive) in the assay on IGROV-1. Besides, the GI50 in the assay with SR is 39.1 µM (inactive); in the assay with CAKI-1 it was > 100 µM (inactive); with MCF7, 49.5 µM (inactive); in the assay on SW-620 it was 58.9 µM (inactive); with T47D it was 89.3 µM (inactive); in the assay with BT-549, 22.9 µM (inactive). Moreover, the GI50 is 48.1 µM (inactive) with EKVX; 51.8 µM (inactive) in the assay with SN12C; 44.7 µM (inactive) in the assay on A549; 18.2 µM (inactive) with SK-MEL-5; 39.7 µM (inactive) in the assay on UO-31; 37.8 µM (inactive) in the assay on KM12.
In the case of `CC(=O)Nc1ccc2c(c1)/C(=N/c1ccc(C(=O)O)cc1)c1ccccc1-2`, the GI50 was 55.6 µM (inactive) in the assay on SNB-19; 39.5 µM (inactive) in the assay on NCI-H226; > 100 µM (inactive) with TK-10; 76.7 µM (inactive) in the assay on OVCAR-8; < 0.01 µM (active) with HL-60; 46.3 µM (inactive) with IGROV-1. Also, the GI50 is > 100 µM (inactive) in the assay with CAKI-1; 2.42 µM (inactive) in the assay on MCF7; > 100 µM (inactive) in the assay with SW-620; 28 µM (inactive) in the assay with T47D; 47.1 µM (inactive) in the assay with BT-549; 45.9 µM (inactive) in the assay with EKVX. Also, the GI50 is > 100 µM (inactive) in the assay with SN12C; > 100 µM (inactive) in the assay with A549; 25.8 µM (inactive) in the assay with SK-MEL-5; 38.3 µM (inactive) with UO-31; 51.4 µM (inactive) with KM12.

The values above are taken from ChEMBL document CHEMBL1201862, “PubChem BioAssay data set” (2004).
